≈ marks a conversion by molar mass, not a printed value.
How the values were obtained:
[1] = tested on: Escherichia coli IR57 (V7); experiment: Minimum inhibitory concentration (MIC) assay, planktonic culture, broth dilution; assay type: cell-based; set-up: key: C = confluent growth, i.e. no MIC could be determined at any concentration tested; conditions: E. coli, planktonic culture in Mueller-Hinton broth; mean of three replicate tests
Method: (§1) The effects of five epoxytiglienones (Compounds 1, 2, 3, 4 and 6) and two comparator comparator compounds (epoxytiglienones having longer carbon chains at the C12 position) on six human pathogenic bacteria (two Gram-positive and four Gram-negative species) were measured in conventional planktonic culture systems. A minimum inhibitory concentrations (MIC) assay (the standard assay employed to define and quantify antibiotic activity) was performed to determine antibacterial activity for each epoxytiglienone against each bacterial strain.
(§2) The Gram-positive bacteria used in this study were methicillin resistant Staphylococcus aureus (MRSA) 1004A and Streptococcus pyogenes. The Gram-negative bacteria used in this study were Pseudomonas aeruginosa PAO1, Escherichia coli IR57 (V7), Klebsiella pneumoniae, and Acinetobacter baumannii 7789 (V19). MIC assays were performed on planktonic cultures of each bacteria grown in Mueller-Hinton broth using the standard broth dilution method described by Jorgensen et al. (1999) using epoxytiglienones dissolved in ethanol.

Klebsiella pneumoniae = experiment: as above; assay type: cell-based; set-up: key: C = confluent growth, i.e. no MIC could be determined at any concentration tested; conditions: K. pneumoniae, planktonic culture in Mueller-Hinton broth; mean of three replicate tests
Method: as §1, §2

[2] = tested on: Pseudomonas aeruginosa PAO1; experiment: as above; assay type: cell-based; set-up: key: C = confluent growth, i.e. no MIC could be determined at any concentration tested; conditions: P. aeruginosa, planktonic culture in Mueller-Hinton broth; mean of three replicate tests
Method: as §1, §2

[3] = tested on: Acinetobacter baumannii 7789 (V19); experiment: as above; assay type: cell-based; set-up: key: C = confluent growth, i.e. no MIC could be determined at any concentration tested; conditions: A. baumannii, planktonic culture in Mueller-Hinton broth; mean of three replicate tests
Method: as §1, §2

Streptococcus pyogenes = experiment: as above; assay type: cell-based; set-up: key: C = confluent growth, i.e. no MIC could be determined at any concentration tested; conditions: S. pyogenes, planktonic culture in Mueller-Hinton broth; mean of three replicate tests
Method: as §1, §2

[4] = tested on: methicillin resistant Staphylococcus aureus (MRSA) 1004A; experiment: as above; assay type: cell-based; set-up: key: C = confluent growth, i.e. no MIC could be determined at any concentration tested; conditions: S. aureus, planktonic culture in Mueller-Hinton broth; mean of three replicate tests
Method: as §1, §2

[5] = tested on: A. baumannii 7789 biofilm; experiment: Disruption of established in vitro biofilm, CLSM with COMSTAT image analysis; assay type: cell-based, Acinetobacter baumannii; conditions: 256 μg/mL
Method: Biofilms of E. coli IR57 were grown on 96-well glass-bottomed plates in Mueller-Hinton (MH) broth for 24 h, before 50% of the supernatant was replaced with fresh MH broth with or without the epoxytiglienone compound added to a final concentration of 256 μg/mL (vehicle is ethanol). An ethanol equivalent blank was used as a further control treatment. The plates were then incubated for a further 24 h at 37° C.
Confocal laser scanning microscopy (CLSM) was then used to image the biofilms, following staining with Live/Dead® Baclight stain with phosphate buffered saline (PBS) added to each well before imaging with z-stack CLSM. The resultant images were analysed by COMSTAT software to produce measurements of (i) biofilm biomass volume or bio-volume (μm^3/μm^2) and (ii) DEAD/LIVE bacterial ratio.
The effects of the epoxytiglienones (Compounds 1, 4, 6 and the comparator compound CC-1) on disruption of established in vitro biofilms were further investigated with two other species of Gram-negative bacteria (Pseudomonas aeruginosa PA01 and Acinetobacter baumannii 7789) using methods described in Example 2 above. Cell permeabilisation following Compound 1, 4 and 6 treatment was also determined using SYTOX™ Green Nucleic Acid Stain with untreated control and positive control of 70% isopropanol.

[6] = tested on: chronic biofilm infection; experiment: Diabetic murine model of chronic biofilm infection (excisional wound); assay type: in vivo, db/db diabetic mice; conditions: 0.3 mg/mL in hydrogel, topical at 24 h, 8 and 15 days; assessed day 21 to 28 post wounding; 7 mice
Description: The effects of administration of Compound 4 on biofilm infection in vivo was studied in a diabetic murine model of chronic biofilm infection (Zhao et al. 2010). In this study we used methods described by Dhall et al. (2014) in which bacterial biofilm infections develop spontaneously following wound creation.
Briefly, db/db diabetic mice (>6 months old) were housed for 4-5 weeks in non-sterile conditions prior to the creation of wound on the back of each mouse with a 6 mm diameter excisional punch biopsy. Mice were then administered a catalase inhibitor intra-peritoneally (1 g/kg aminotriazole) and a glutathione peroxidase (GPx) inhibitor topically around the edge of the wound site (1 g/kg mercaptosuccinic acid) prior to dressing with Tegaderm. After 24 h, biofilms were evident at the wound site on all mice. The mice where divided into two groups (7 mice per group) and treated with either Compound 4 (0.3 mg/mL in a hydrogel vehicle) or a Control treatment (hydrogel vehicle only). The Tegaderm dressing was the then replaced. Two further administrations of Compound 4 or the Control (vehicle only) were performed at 8 and 15 days. No antibiotics or other antibacterial treatments were applied during the study.
The presence of biofilm and the surface area of the wound were assessed over the course of the study. […]

## CCCCCC(=O)OC1C(C)C2(O)C(C3OC3(CO)C(O)C3(O)C(=O)C(C)=CC32)C2C(C)(C)C12OC(=O)CCCCC (stereo not drawn) [Compound 4, 12,13-dihexanoyl-6,7-epoxy-4,5,9,12,13,20-hexahydroxy-1-tiglien-3-one]
[1]
  Minimum inhibitory concentrations: C
Klebsiella pneumoniae
  Minimum inhibitory concentrations: C
[2]
  Minimum inhibitory concentrations: C
[3]
  Minimum inhibitory concentrations: C
Streptococcus pyogenes
  Minimum inhibitory concentrations: 256 µg/mL (≈ 432 µM)
[4]
  Minimum inhibitory concentrations: 512 µg/mL (≈ 864 µM)
[5]; vs untreated and ethanol blank controls
  DEAD/LIVE bacterial ratio: no significant differences
[5]; vs untreated and ethanol blank controls (p<0.05)
  biofilm bio-volume (COMSTAT): significant reductions
[6]
  mice with complete wound healing (complete re-epithelialisation, resolution of inflammation, absence of bacteria within the dermis): 6 of the 7
